From patent US10851093B2, “Tyrosine kinase inhibitors” (Rigel Pharmaceuticals, Inc., priority 2018, dated 2020)

Columns and labels:
Axl = molecular target: T1, Axl (Homo sapiens, UniProt P30530); experiment: Phospho-AKT HTRF, HUVEC, Axl ABX-L, 8 pt; format: cell-based; details: HUVEC cells, pAkt(Ser473) HTRF, Axl ABX-L stimulation
T1 construct: Seed HUVECs (10K cells/well) in EBM-2 complete media; host or cells: HUVEC
T1 sequence (P30530 26-894): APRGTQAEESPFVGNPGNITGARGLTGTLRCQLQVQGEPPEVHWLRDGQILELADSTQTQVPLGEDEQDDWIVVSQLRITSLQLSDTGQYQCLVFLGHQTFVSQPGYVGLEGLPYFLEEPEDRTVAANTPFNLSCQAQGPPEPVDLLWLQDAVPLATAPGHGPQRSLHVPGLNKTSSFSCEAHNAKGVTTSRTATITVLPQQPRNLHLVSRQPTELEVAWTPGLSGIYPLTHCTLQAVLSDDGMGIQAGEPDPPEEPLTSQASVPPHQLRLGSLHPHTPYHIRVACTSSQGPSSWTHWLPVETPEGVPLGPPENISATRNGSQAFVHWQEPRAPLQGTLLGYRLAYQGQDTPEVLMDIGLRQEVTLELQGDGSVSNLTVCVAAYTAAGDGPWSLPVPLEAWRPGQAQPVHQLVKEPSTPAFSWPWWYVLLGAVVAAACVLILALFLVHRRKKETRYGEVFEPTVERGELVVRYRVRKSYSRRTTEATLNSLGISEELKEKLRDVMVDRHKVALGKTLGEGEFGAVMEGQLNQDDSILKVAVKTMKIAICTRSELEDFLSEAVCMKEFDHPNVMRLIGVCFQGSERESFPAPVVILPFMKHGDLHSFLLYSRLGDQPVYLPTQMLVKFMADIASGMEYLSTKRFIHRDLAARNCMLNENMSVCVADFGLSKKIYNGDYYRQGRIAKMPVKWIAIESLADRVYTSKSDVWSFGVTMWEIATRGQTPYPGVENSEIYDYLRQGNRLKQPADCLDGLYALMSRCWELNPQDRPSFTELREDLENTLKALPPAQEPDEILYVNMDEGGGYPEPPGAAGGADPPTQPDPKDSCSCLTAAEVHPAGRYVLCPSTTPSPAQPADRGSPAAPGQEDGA
Description: [The source words this procedure for another target and reports this target under the same test.] (§1) Example 13: PAKT HTRF-HUVEC Assay
(§2) Seed HUVECs (10K cells/well) in EBM-2 complete media (EBM-2 basal medium plus EGM-2 BulletKit supplements) overnight at 37° C., 5% CO2 in Costar 96-well white clear-bottom plates. Remove culture media and starve cells for 3-4 hours in 50 μL/well EBM-2 basal medium. Perform serial dilution of compounds in DMSO from 2.5 mM in 4-fold dilutions, and then dilute 1:125 in EBM-2 basal media. Mix 50 μL/well 2× compounds with 50 μL/well HUVECs in duplicate in Costar 96-well white clear-bottom plates. Incubate plates for 1 hour at 37° C., 5% CO2. Cross-link anti-human MerTK antibody to Biotin-SP-conjugated anti-mouse IgG antibody (1:1) to give final concentrations of 5 μg/mL of anti-human MerTK-XL. Stimulate HUVECs with 25 μL/well 5× anti-human MerTK-XL to give final concentrations of 1 ug/mL for 10 minutes at 37° C., 5% CO2. Completely remove media and lyse HUVECs with 40 uL:WELL per well of Cisbio HTRF 1× lysis buffer. Performed pAkt(Ser473) HTRF assay in ProxiPlate-384 Plus, white 384-shallow well microplate according to the vendor protocol and read plates with a SpectralMax Paradigm plate reader. Enter the HTRF values into Athena (Rigel) for curve fitting, EC50 calculation, and database storage.

MerTK = molecular target: T2, MerTK (Homo sapiens, UniProt Q12866); experiment: Phospho-AKT HTRF, HUVEC, Mer-XL, 8 pt (pAKT HTRF-HUVEC assay, anti-human MerTK-XL stimulation); format: cell-based; details: HUVEC cells, pAkt(Ser473) HTRF, anti-human MerTK-XL stimulation 1 ug/mL 10 minutes
T2 construct: Seed HUVECs (10K cells/well) in EBM-2 complete media; host or cells: HUVEC
T2 sequence (Q12866 21-999): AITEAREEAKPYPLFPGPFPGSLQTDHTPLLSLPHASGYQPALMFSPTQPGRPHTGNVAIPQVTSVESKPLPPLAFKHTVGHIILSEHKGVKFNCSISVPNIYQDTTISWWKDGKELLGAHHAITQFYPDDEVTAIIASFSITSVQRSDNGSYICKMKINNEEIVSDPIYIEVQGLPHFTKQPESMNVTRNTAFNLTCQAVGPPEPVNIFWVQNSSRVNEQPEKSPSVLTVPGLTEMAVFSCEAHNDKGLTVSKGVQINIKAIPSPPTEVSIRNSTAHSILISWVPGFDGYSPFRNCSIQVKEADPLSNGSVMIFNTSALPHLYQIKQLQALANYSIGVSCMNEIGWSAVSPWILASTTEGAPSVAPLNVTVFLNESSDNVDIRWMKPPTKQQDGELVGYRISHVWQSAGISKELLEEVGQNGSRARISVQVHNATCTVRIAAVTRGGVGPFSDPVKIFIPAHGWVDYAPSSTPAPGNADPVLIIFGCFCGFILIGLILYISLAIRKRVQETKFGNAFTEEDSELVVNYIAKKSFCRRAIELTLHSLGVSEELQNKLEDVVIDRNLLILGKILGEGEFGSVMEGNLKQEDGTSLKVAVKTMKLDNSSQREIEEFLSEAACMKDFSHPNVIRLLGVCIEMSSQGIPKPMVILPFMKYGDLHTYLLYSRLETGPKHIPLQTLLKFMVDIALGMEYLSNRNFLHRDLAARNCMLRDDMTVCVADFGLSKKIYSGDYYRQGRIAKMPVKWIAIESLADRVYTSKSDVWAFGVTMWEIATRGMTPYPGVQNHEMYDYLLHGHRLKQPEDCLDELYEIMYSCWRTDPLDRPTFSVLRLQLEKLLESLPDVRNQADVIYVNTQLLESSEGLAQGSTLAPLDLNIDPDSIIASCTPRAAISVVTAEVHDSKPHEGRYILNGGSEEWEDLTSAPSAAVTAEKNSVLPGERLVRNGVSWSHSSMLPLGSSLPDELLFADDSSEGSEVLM
Description: as §1, §2

Compound	EC50 (Axl)	EC50 (MerTK)
COc1cc2c(Oc3ccc(NC(=O)c4nc(-c5ccccc5)c5c(n4)C4CCN5CC4)cc3F)ccnc2cc1OCCCN1CCOCC1 [Compound 36, N-(3-fluoro-4-((6-methoxy-7-(3-morpholinopropoxy)quinolin-4-yl)oxy)phenyl)-4-phenyl-7,8-dihydro-6H-5,8-ethanopyrido[3,2-d]pyrimidine-2-carboxamide]	0.0058 µM	0.0095 µM
COc1cc2c(Oc3ccc(NC(=O)c4nc(-c5ccccc5)c5c(n4)C4CCN5CC4)nc3)ccnc2cc1OCc1ccccc1 [Compound 37, N-(5-((7-(benzyloxy)-6-methoxyquinolin-4-yl)oxy)pyridin-2-yl)-4-phenyl-7,8-dihydro-6H-5,8-ethanopyrido[3,2-d]pyrimidine-2-carboxamide]	0.0384 µM	0.0636 µM
COc1cc2nccc(Oc3ccc(NC(=O)c4nc(-c5ccccc5)c5c(n4)C4CCN5CC4)nc3)c2cc1OC [Compound 38, N-(5-((6,7-dimethoxyquinolin-4-yl)oxy)pyridin-2-yl)-4-phenyl-7,8-dihydro-6H-5,8-ethanopyrido[3,2-d]pyrimidine-2-carboxamide]	0.0131 µM	0.0077 µM
COc1cc2c(Oc3ccc(NC(=O)c4csc(Br)n4)nc3)ccnc2cc1OCCCN1CCOCC1 [Compound 40, 2-bromo-N-(5-((6-methoxy-7-(3-morpholinopropoxy)quinolin-4-yl)oxy)pyridin-2-yl)thiazole-4-carboxamide]	0.147 µM	0.0272 µM
COc1cc2c(Oc3ccc(NC(=O)c4csc(N5CCC(O)CC5)n4)nc3)ccnc2cc1OCCCN1CCOCC1 [Compound 41, 2-(4-hydroxypiperidin-1-yl)-N-(5-((6-methoxy-7-(3-morpholinopropoxy)quinolin-4-yl)oxy)pyridin-2-yl)thiazole-4-carboxamide]	2.12 µM	0.64 µM
COc1cc2c(Oc3ccc(NC(=O)c4csc(-c5ccccc5)n4)nc3)ccnc2cc1OCCCN1CCOCC1 [Compound 42, N-(5-((6-methoxy-7-(3-morpholinopropoxy)quinolin-4-yl)oxy)pyridin-2-yl)-2-phenylthiazole-4-carboxamide]	0.05 µM	0.0472 µM
COc1cc2c(Oc3ccc(NC(=O)c4csc(-c5ccc(F)cc5)n4)nc3)ccnc2cc1OCCCN1CCOCC1 [Compound 43, 2-(4-fluorophenyl)-N-(5-((6-methoxy-7-(3-morpholinopropoxy)quinolin-4-yl)oxy)pyridin-2-yl)thiazole-4-carboxamide]	0.0552 µM	0.0449 µM
COc1cc2c(Oc3ccc(NC(=O)c4ncc(Br)s4)nc3)ccnc2cc1OCCCN1CCOCC1 [Compound 44, 5-bromo-N-(5-((6-methoxy-7-(3-morpholinopropoxy)quinolin-4-yl)oxy)pyridin-2-yl)thiazole-2-carboxamide]	0.102 µM	0.0799 µM
COc1cc2c(Oc3ccc(NC(=O)c4csc(N5CCC(O)CC5)n4)nc3)ccnc2cc1OCCCN1CCOCC1 [Compound 45, 2-(4-hydroxypiperidin-1-yl)-N-(5-((6-methoxy-7-(3-morpholinopropoxy)quinolin-4-yl)oxy)pyridin-2-yl)thiazole-4-carboxamide, hydrochloric acid]	0.649 µM	0.459 µM
COc1cc2c(Oc3ccc(NC(=O)c4csc(N5CCCCC5)n4)nc3)ccnc2cc1OCCCN1CCOCC1 [Compound 46, N-(5-((6-methoxy-7-(3-morpholinopropoxy)quinolin-4-yl)oxy)pyridin-2-yl)-2-(piperidin-1-yl)thiazole-4-carboxamide]	0.0209 µM	0.0128 µM
COc1cc2c(Oc3ccc(NC(=O)c4ncc(N5CCCCC5)s4)nc3)ccnc2cc1OCCCN1CCOCC1 [Compound 47, N-(5-((6-methoxy-7-(3-morpholinopropoxy)quinolin-4-yl)oxy)pyridin-2-yl)-5-(piperidin-1-yl)thiazole-2-carboxamide]	0.13 µM	0.119 µM
COc1cc2c(Oc3ccc(NC(=O)c4ncc(-c5ccccc5)s4)nc3)ccnc2cc1OCCCN1CCOCC1 [Compound 48, N-(5-((6-methoxy-7-(3-morpholinopropoxy)quinolin-4-yl)oxy)pyridin-2-yl)-5-phenylthiazole-2-carboxamide]	0.344 µM	0.238 µM
COc1cc2ncnc(Oc3ccc(NC(=O)c4nc(-c5ccccc5)c5c(n4)C4CCN5CC4)nc3)c2cc1OC [Compound 49, N-(5-((6,7-dimethoxyquinazolin-4-yl)oxy)pyridin-2-yl)-4-phenyl-7,8-dihydro-6H-5,8-ethanopyrido[3,2-d]pyrimidine-2-carboxamide]	0.0268 µM	0.0154 µM
